Key:
[1] = test system: metrazole-induced clonic seizures; test: Subcutaneous Metrazole Seizure Threshold Test (scMET), rats; format: in vivo; settings: rat, row printed as 300, 0.4 h
[2] = test system: MES-induced seizures; test: Maximal Electroshock Seizure (MES) test, rats; format: in vivo; settings: rat, p.o., 30 mg/kg
Method: (§1) Toxicity was measured using the minimal motor impairment test described below.
(§2) The MES test is a model for generalized tonic-clonic seizures. The seizures are highly reproducible and electrophysiologically consistent with human seizures. The test provides information about a compound's ability to prevent the spread of seizure when all neuronal circuits of the brain are maximally active. 60 Hz of alternating current (50 mA in mice, 150 mA in rats) is applied for 2 seconds via corneal electrodes that have been treated with an electrolyte solution containing an anesthetic (0.5% tetracaine HCl). Mice are tested at a variety of intervals after an i.p. injection of […] solution of the test compound (commonly in a 0.5% solution of methylcellulose) at 30, 100, and 300 mg/kg doses. Rats are examined after a 30 mg/kg (per os, p.o.) dose that is applied in a volume of 0.04 mL/g. An animal is considered “protected” from MES-induced seizures upon removal of the hind limb extensor component of the seizure.
Male and female albino CF1 mice (18-25 g, Charles River, Portage, Mich.) and male albino Sprague-Dawley rats (275-300 g, kindling test; 100-150 g all other tests; Charles River, Raleigh, N.C.) were used as experimental animals.

[3] = test system: seizures; test: In vivo anticonvulsant screening (MES, scMET, minimal clonic seizure), summary in words; parameters: species or system rat, mouse; settings: summary of Table 2
Method: as §1, §2
The subcutaneous injection of metrazole, which is a convulsant, produces clonic seizures in laboratory animals. The scMET test is designed to identify compounds that raise the seizure threshold of an animal. Mice are pretreated with test compound at 30, 100, and 300 mg/kg doses in a similar manner to the MES test. Rats are treated with a 50 mg/kg dose (p.o.). At the previously determined TPE of the test compound, the dose of metrazole that will induce convulsions in 97% of animals (CD97: 85 mg/kg mice) is injected into the loose fold of the skin in the midline of the neck. The animals are placed in isolation cages to minimize stress and observed for the next 30 minutes for the presence or absence of seizures. An episode of clonic spasms (approximately 3-5 seconds) of the fore and/or hindlimbs, jaws or vibrissae is taken as the endpoint.
The minimal clonic seizure (6 Hz) test, like the MES test, is used to assess a compound's ability to protect against electrically-induced seizures. The minimal clonic (6 Hz) seizure test uses a lower frequency (6 Hz) and a longer duration of stimulation (3 seconds) than the MES test. Test compounds are pre-administered to mice via i.p. injection. At varying times, individual mice (four per time point) are challenged with sufficient current via corneal electrodes to elicit a psychomotor seizure in 97% of animals (32 mA for 3 second). Untreated mice will display seizure characterized by a minimal clonic phase followed by stereotyped, automatistic behaviors described originally as being similar to the aura of human patients with partial seizures. Animals not displaying this behavior are considered to be protected.

Structure (SMILES): CCOC(=O)C1[C@@H]2[C@@H](O)[C@@H]3O[C@H](c4ccc(OC)cc4)OC[C@H]3O[C@H]12 (stereo partly drawn) [Compound 16, ethyl (2R,4aR,5aS,6aR,7R,7aS)-7-hydroxy-2-(4-methoxyphenyl)hexahydro-4H-cyclopropa[5,6]pyrano[3,2-d][1,3]dioxine-6-carboxylate]
- scMET 300 0.4 h (animals protected/tested) [1]: 0/4
- MES 30 0.5 h (animals protected/tested) ([2]; 0.5 h): 0/4
- MES 30 4 h (animals protected/tested) ([2]; 4 h): 1/4
- anticonvulsant activity [3]: anticonvulsant activity
